{
  "source": "patent US20030139374A1",
  "about": "(University of Texas, published 2003)",
  "key": {"[1]": {"molecular_target": "T1, Factor Xa generation (Factor VIIa, Factor X) (Homo sapiens, UniProt P08709)", "T1 construct": "purchased Sigma", "T1 sequence (P08709 61-212 limits assumed)": "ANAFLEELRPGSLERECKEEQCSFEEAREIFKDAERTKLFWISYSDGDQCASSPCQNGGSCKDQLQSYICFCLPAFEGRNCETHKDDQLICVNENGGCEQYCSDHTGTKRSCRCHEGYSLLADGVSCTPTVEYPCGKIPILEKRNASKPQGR", "T1 sequence (P08709 213-466 limits assumed)": "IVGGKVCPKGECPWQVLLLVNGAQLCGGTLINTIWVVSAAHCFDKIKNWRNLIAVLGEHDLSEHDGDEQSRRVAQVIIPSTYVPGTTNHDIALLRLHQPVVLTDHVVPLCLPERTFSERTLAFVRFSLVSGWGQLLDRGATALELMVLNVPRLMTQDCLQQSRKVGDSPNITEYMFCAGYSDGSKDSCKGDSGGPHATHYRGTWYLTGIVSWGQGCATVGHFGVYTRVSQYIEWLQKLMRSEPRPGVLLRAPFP", "T1 sequence (P13726 33-251 partner limits assumed)": "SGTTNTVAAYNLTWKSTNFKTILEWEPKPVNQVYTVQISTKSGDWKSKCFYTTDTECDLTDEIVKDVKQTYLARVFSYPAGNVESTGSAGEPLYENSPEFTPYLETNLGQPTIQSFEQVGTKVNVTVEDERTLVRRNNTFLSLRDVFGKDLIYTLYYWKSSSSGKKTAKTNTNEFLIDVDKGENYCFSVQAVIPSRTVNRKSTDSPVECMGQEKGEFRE", "assay": "Cell free two-stage coagulation assay", "assay_type": "biochemical", "settings": "FIG. 2", "description": "In vitro coagulation activity was tested in a cell free two-stage coagulation assay. Negatively charged phospholipids at a final concentration of 50 μM (phosphatidylserine and phosphatidylcholine from Sigma, Taufkirchen, Germany) in calcium buffer (50 mM Tris pH=8.1, 150 mM NaCl, 2 mg/ml BSA, 5 mM Ca^++) were mixed with Factor VIIa (Sigma, Taufkirchen, Germany) at 10 nM and with samples or controls and incubated for five min at 37° C. Factor X was added to a final concentration of 30 nM and samples were incubated for 5 min at room temperature. Finally, the chromogenic substrate S2765 (Haemochrom, Essen, Germany) was added in a 100 mM EDTA solution. Factor Xa generation as a measure of Tissue Factor activity was determined by the increase in the absorption at 405 nm.\nNegatively charged phospholipids at a final concentration of 50 μM (phosphatidylserine and phosphatidylcholine from Sigma, St. Louis, Mo.) in calcium buffer (50 mM Tris pH=8.1, 150 mM NaCl, 2 mg/ml BSA, 5 mM Ca^++) were mixed with Factor VIIa (Sigma, St. Louis, Mo.) at 10 nM and with samples or controls and incubated for five minutes at 37° C. Factor X (Sigma, St. Louis, Mo.) was added to a final concentration of 30 nM and samples were incubated for 5 minutes at room temperature. […] Factor Xa generation as a measure of tissue factor activity was determined by the increase in the absorption at 405 nm."}, "F9 sarcoma tumors": {"system": "F9 sarcoma tumors", "assay": "F9 sarcoma mouse model, tumor tissue necrosis", "assay_type": "in vivo, balb/c nude mice", "settings": "endotoxin-free tTF 4 μg; three days after treatment", "description": "1×10^7 F9 sarcoma cells were injected subcutaneously into the right flank of balb/c nude mice. Subcutanous tumors were measured with a caliper in three perpendicular directions a, b, and c, and volumes calculated according to the formula V=π/6×a×b×c. Treatment was initiated when subcutaneous tumors reached a size of 150 to 300 μl.\nReagents were administered into the lateral tail vein.\nMice were closely observed after treatment for clinical signs of toxicity and clinical status was documented at defined time points. Three days after treatment, mice were sacrificed and tumors were harvested. Paraffin embedded tissues were stained with hematoxilin and eosin (H&E). Tissue sections were analyzed on a light microscope by two independent investigators and histological findings were documented. Tumor sections with necrotic areas were scanned with a GS-700 imaging densitometer (Biorad. Hercules, Calif.) and areas of necrosis were calculated as % of total section area."}, "immobilized tTF": {"molecular_target": "T2, immobilized tTF (Homo sapiens, UniProt P13726)", "T2 construct": "Recombinant soluble Tissue Factor protein (amino acids 1-219) was extracted from the periplasmic space of transformed E. coli; His tag (only implied by the Ni-NTA purification); made in house; host or cells: E. coli (periplasmic secretion, vector pswc7)", "T2 sequence (P13726 33-251)": "as the sequence (P13726 33-251 partner limits assumed) above", "assay": "Real time binding of tTF to immobilized tTF (surface plasmon resonance)", "settings": "tTF 30 μg/ml alone or preincubated with endotoxin or factor VIIa"}, "bEnd 3 cells": {"system": "bEnd 3 cells", "assay": "Cell bound coagulation assay on stimulated bEnd 3 endothelial cells (factor Xa generation)", "assay_type": "cell-based, murine", "settings": "for Factor Xa generation due to Factor VIIa production: factor VII-only values subtracted"}, "[2]": {"assay": "Clinical signs of toxicity and histology of normal organs after tTF and/or endotoxin", "assay_type": "in vivo, SCID mice", "settings": "for Symptoms: no endotoxin, tTF i.v.", "description": "(§1) Treatment was initiated when subcutaneous tumors reached a size of 150 to 300 μl. Reagents were administered into the lateral tail vein.\n(§2) Mice were closely observed after treatment for clinical signs of toxicity and clinical status was documented at defined time points (5 minutes. 10 minutes, 15 minutes, 30 minutes. 1 hour, 2 hours, 24 hours, 48 hours, 72 hours). Blood samples were taken from the tail vein at 1 hour, 2 hours and 24 hours to measure TNFα blood levels. Three days after treatment, the mice were anesthetized, blood samples were taken from the vena cava for coagulation tests, and an autopsy was performed to document any changes in gross pathology. Tumors, lymph node metastases and the major normal organs (heart, lung, brain, liver, kidney, colon, spleen, pancreas) were harvested and prepared for histological analysis.\n(§3) Tissue samples harvested at the time of autopsy were fixed in 3% NBF (normal buffered formalin) and embedded in paraffin wax. Tissue blocs were cut, dewaxed and stained with hematoxilin and eosin (H&E). Tissue sections were analyzed on a light microscope by two independent investigators and histological findings were documented. Tumor sections with necrotic areas were scanned with a GS-700 imaging densitometer (Biorad, Hercules, Calif.) and areas of necrosis were calculated as % of total section area. Statistical Analysis was performed using SPSS software (SPSS Science Software, Erkrath, Germany) applying the Mann-Whitney-U-test for ungrouped data."}, "[3]": {"system": "L540rec human Hodgkin's lymphoma tumors", "assay": "Tumor tissue necrosis in L540rec tumor-bearing SCID mice treated with tTF and/or endotoxin", "assay_type": "in vivo", "description": "For in vivo studies, a metastasizing mouse model for human Hodgkin's lymphoma was used. 1×10^7 L540rec cells were injected subcutaneously into the right flank of SCID mice resulting in a subcutaneous tumor with lymph node metastases in the regional lymph node stations. Subcutanous tumors were measured with a caliper in three perpendicular directions a, b, and c, and volumes calculated according to the formula V=π/6×a×b×c.\nas §1, §2, §3"}, "A20 lymphoma cells": {"system": "A20 lymphoma cells", "assay": "In vitro coagulation assay on A20 cells with B21-2/10H10 capture antibody", "assay_type": "cell-based, mouse", "settings": "for coagulation time: cells alone 190 seconds"}, "[4]": {"assay": "Plasma coagulation parameters (TAT, ATIII) three days after treatment", "assay_type": "in vivo, SCID mice", "settings": "tTF alone, no endotoxin, three days after i.v. treatment"}},
  "data": [
    {"substance": "tTF: truncated (soluble) human Tissue Factor, extracellular domain, amino acid 1-219 of the mature protein", "values": [
      {"measurement": "coagulation activities before and after endotoxin removal (depyrogenation)", "setting": "[1]", "result": "the same"},
      {"measurement": "average tumor tissue necrosis", "setting": "F9 sarcoma tumors", "result": 45, "unit": "%"},
      {"measurement": "binding to immobilized tTF", "setting": "immobilized tTF", "result": "did not bind"},
      {"measurement": "Factor Xa generation due to Factor VIIa production", "setting": "bEnd 3 cells; stimulation with 0.5 μg/ml LPS (label LPS = medium only), 2 μg/ml factor VII and 0.01 μg/ml factor VIIa", "result": 3.00, "unit": "nkatS2222"},
      {"measurement": "Factor Xa generation", "setting": "bEnd 3 cells; stimulation with 0.5 μg/ml LPS, then incubation with labelled agent (label LPS = medium only), 0.5 μg/ml factor VIIa", "result": 2.00, "unit": "nkatS2222"},
      {"measurement": "Factor Xa generation", "setting": "bEnd 3 cells; stimulation with 10 μg/ml LPS, then incubation with labelled agent (label LPS = medium only), 0.5 μg/ml factor VIIa", "result": 2.91, "unit": "nkatS2222"},
      {"measurement": "Factor Xa generation due to Factor VIIa production", "setting": "bEnd 3 cells; stimulation with Medium, mix with 2 μg/ml factor VII and 0.01 μg/ml factor VIIa", "result": 0.70, "unit": "nkatS2222"},
      {"measurement": "Factor Xa generation", "setting": "bEnd 3 cells; stimulation with Medium, then incubation with the labelled agent (100 nM), mix with 0.5 μg/ml factor VIIa (VIIa not limiting)", "result": 0.40, "unit": "nkatS2222"},
      {"measurement": "Factor Xa generation", "setting": "bEnd 3 cells; stimulation with TNFα (500 U/ml), then incubation with labelled agent (label TNFα = medium only), 0.5 μg/ml factor VIIa", "result": 0.67, "unit": "nkatS2222"},
      {"measurement": "Factor Xa generation due to Factor VIIa production", "setting": "bEnd 3 cells; stimulation with TNFα (label TNFα = medium only), 2 μg/ml factor VII and 0.01 μg/ml factor VIIa", "result": 1.91, "unit": "nkatS2222"},
      {"measurement": "histology of normal organs", "setting": "[2]; light microscopy, three days after treatment", "result": "No histological abnormalities"},
      {"measurement": "Symptoms", "setting": "[2]; listed as TTF", "result": "None"},
      {"measurement": "Symptoms", "setting": "[2]; listed as endotoxin-free tTF", "result": "no clinical signs of toxicity"},
      {"measurement": "% tumor necrosis", "setting": "[3]; Table 2, tTF alone, no endotoxin, three days after i.v. treatment", "result": 4, "unit": "%"},
      {"measurement": "Percentage of tumor tissue necrosis", "setting": "[3]; tTF alone (4 μg or 16 μg endotoxin-free tTF), no endotoxin", "result": 0, "unit": "%"},
      {"measurement": "anti-tumor effect", "setting": "[3]; tTF alone at 100 μg", "result": "anti-tumor effects begin to appear"},
      {"measurement": "anti-tumor effect", "setting": "[3]; tTF alone at doses of from 4 μg to 16 μg", "result": "no anti-tumor effect"},
      {"measurement": "coagulation time", "setting": "A20 lymphoma cells; 20,000 molecules per cell", "result": 140, "unit": "s"},
      {"measurement": "coagulation time", "setting": "A20 lymphoma cells; 300,000 molecules of tTF per cell", "result": 40, "unit": "s"},
      {"measurement": "concentration at which plasma coagulated in 50 seconds", "setting": "A20 lymphoma cells; bound via B21-2/10H10 to A20 cells", "result": 3, "unit": "nM"},
      {"measurement": "time until fibrin strands were visible", "setting": "A20 lymphoma cells; mouse plasma, tTF bound by B21-2/10H10, untreated cells 164 seconds", "result": 36, "unit": "s"},
      {"measurement": "increase in coagulation-inducing potency", "setting": "A20 lymphoma cells; presence of 0.1 nM Factor VIIa", "result": "2-5 fold"},
      {"measurement": "TAT", "setting": "[4]", "result": 25.4, "unit": "ng/mL"}
    ]}
  ]
}
